# Patent US6486096B1, “Herbicidal compositions with acylated aminophenylsulfonylureas” (priority 1998, dated 2002)
# Several values for one entry are separate records, joined by “and”; a condition that tells them apart may be missing. Equal values may be shown once. Read-outs that look alike come from different tables or passages of the source.
# Assays:
# Assay type in all cases: in vivo
# [1] = tested on: ABUTH = Abutilon theophrasti; assay: Herbicidal action, visual scoring; conditions: Table 2; scoring 3 weeks after application; (pe) pre-emergence, (po) post-emergence; g of A.S./ha by row: r6 35 (po), r7 1120 + 1120 (pe), r9 (1120 + 1120) (pe) + 35 (po)
# Method: (§1) The herbicidal activity of the active substances or active substance mixtures was scored visually with the aid of the treated parcels in comparison with untreated control parcels. Damage to and development of all above-ground parts of plants was recorded here. Scoring was carried out on a percentage scale (100% action=all plants died; 50% action=50% of the plants and green plant parts died; 0% action=no discernible action=like control parcels. The mean of the scoring values of 4 parcels in each case was taken.
# (§2) Seeds or rhizome pieces of monocotyledonous and dicotyledonous weeds are placed in sandy loam soil in pots, covered with soil and grown in the greenhouse under good growth conditions (temperature, humidity, water supply). Three weeks after sowing, the test plants in the three-leaf stage are treated with the compositions according to the invention. The compositions according to the invention which are formulated as wettable powders or as emulsion concentrates are sprayed in various dosages on the green parts of the plants at an application rate of 600 to 800 l of water/ha (converted). After the test plants have remained in the greenhouse for about 3 to 4 weeks under optimal growth conditions, the effect of the products is scored visually by comparison with untreated controls. When applied post-emergence, too, the compositions according to the invention have a good herbicidal activity against a broad spectrum of economically important grass weeds and broad-leaved weeds.
# (§3) Crop plants were raised outdoors under natural outdoor conditions on plots in which seeds or rhizome sections of typical harmful plants had been sown or the natural weed infestation was used. The treatment with the compositions according to the invention was carried out after the emergence of the harmful plants and the crop plants, as a rule in the 2 to 4-leaf stage; in some cases (as indicated) the application of individual active substances or active substance combinations was carried out pre-emergence (cf. Example 1) or as a sequence treatment, in some cases pre-emergence and/or post-emergence.
# (§4) After the application, e.g. 2, 4, 6 and 8 weeks after application, the action of the preparations was scored visually in comparison with untreated controls (cf. score in Example 1). […] The crop plants, however, were not damaged or were only insignificantly damaged as a result of the treatment with the herbicidal compositions.
# Avena sterilis = assay: Herbicidal action, visual scoring; conditions: Table 8; post-emergence; scoring 46 days after application; g of A.S./ha by row: r7 60, r8 270, r9 450, r10 60 + 270
# Method: as §1, §2, §3, §4
# Chrysanthemum coronarium = assay: Herbicidal action, visual scoring; conditions: Table 8; post-emergence; scoring 46 days after application; g of A.S./ha by row: r7 60, r8 270, r9 450, r10 60 + 270
# Method: as §1, §2, §3, §4
# [2] = tested on: EPHHL = Euphorbia heterophylla; assay: Herbicidal action, visual scoring; conditions: Table 13, post-emergence, scoring 3 weeks after application, g of A.S./ha by row: r7 30, r8 100, r9 150, r10 30 + 50
# Method: as §1, §2, §3, §4
# [3] = tested on: IPOPU = Ipomoea purpureum; assay: Herbicidal action, visual scoring; conditions: Table 3, post-emergence, scoring 6 weeks after application, g of A.S./ha 15, 30, 45, 60, 300, 30 + 300
# Method: as §1, §2, §3, §4
# [4] = tested on: PHBPU = Pharbitis purpurea; assay: Herbicidal action, visual scoring; conditions: Table 2; scoring 3 weeks after application; (pe) pre-emergence, (po) post-emergence; g of A.S./ha by row: r6 35 (po), r7 1120 + 1120 (pe), r9 (1120 + 1120) (pe) + 35 (po)
# Method: as §1, §2, §3, §4
# SOLNI = assay: Herbicidal action, visual scoring; conditions: Table 10, post-emergence, scoring 3 weeks after application, g of A.S./ha by row: r7 120, r8 60, r9 30, r10 15, r11 12, r12 6, r13 3, r14 30 + 6, r16 15 + 6, r18 30 + 3
# Method: as §1, §2, §3, §4
# [5] = tested on: XANOR (Xanthium orientalis); assay: Herbicidal action, visual scoring; conditions: Table 10, post-emergence, scoring 3 weeks after application, g of A.S./ha by row: r7 120, r8 60, r9 30, r10 15, r20 2000, r21 1000, r22 500, r23 30 + 1000, r25 15 + 1000, r27 30 + 500
# Method: as §1, §2, §3, §4
# Brachiaria plantophylla = assay: Herbicidal action, visual scoring; conditions: Table 24; post-emergence; scoring 6 weeks after application; g of A.S./ha by row: r6 45, r7 22.5, r8 60, r9 30, r11 22.5 + 30, r13 60, r14 30, r16 22.5 + 30, r18 450, r20 22.5 + 450
# Method: as §1, §2, §3, §4
# rice = assay: Damage on crop plants (selectivity), visual scoring; conditions: Table 24; post-emergence; scoring 6 weeks after application; g of A.S./ha by row: r6 45, r7 22.5, r8 60, r9 30, r11 22.5 + 30, r13 60, r14 30, r16 22.5 + 30, r18 450, r20 22.5 + 450
# Method: as §1, §3
# (§5) After the application, e.g. 2, 4, 6 and 8 weeks after application, the action of the preparations was scored visually in comparison with untreated controls (cf. score in Example 1). […]
# [6] = tested on: Sethoxidime-resistant corn (SR); assay: as above; conditions: Table 22, post-emergence, scoring 4 weeks after application, g of A.S./ha by row: r7 50, r8 25, r9 12.5, r10 400, r11 200, r12 100, r13 12.5 + 100, r14 12.5 + 200, r15 25 + 100
# Method: as §1, §3, §5
# [7] = tested on: CHEAL = Chenopodium album; assay: Herbicidal action, visual scoring; conditions: Table 4; post-emergence; scoring 40 days after application; g of A.S./ha: 30, 45, 60, 300, 45 + 300
# Method: as §1, §2, §3, §4
# SIDSP = Sida spinosa = assay: Herbicidal action, visual scoring; conditions: post-emergence
# Method: as §1, §2, §3, §4
# [8] = tested on: POLCO = Polygonum convolvulus; assay: Herbicidal action, visual scoring; conditions: Table 4; post-emergence; scoring 40 days after application; g of A.S./ha: 30, 45, 60, 300, 45 + 300
# Method: as §1, with “taken. […]” for “taken.”
# as §3, §4
# corn = conditions: post-emergence
# Method: as §1, §3, §4
# AGRRE = Agropyron repens = assay: Herbicidal action, visual scoring; conditions: Table 6, post-emergence, scoring 3 weeks after application, g of A.S./ha by row: r6 30, r7 45, r8 60, r9 2.5, r10 5, r11 7.5, r12 30 + 2.5, r13 30 + 5
# Method: as §1, §2, §3, §4
# [9] = tested on: ECHCG = Echinochloa crus-galli; assay: Herbicidal action, visual scoring; conditions: Table 12, post-emergence, scoring 3 weeks after application, g of A.S./ha by row: r6 120, r7 60, r8 30, r9 15, r10 1000, r11 500, r12 250, r13 30 + 500, r14 30 + 250, r15 15 + 250, r16 40, r17 20, r18 10, r19 30 + 20, r20 15 + 20, r21 30 + 10, r22 200, r23 100, r24 50, r25 30 + 100, r26 15 + 100, r27 30 + 50
# Method: as §1, §2, §3, §4
# [10] = Table 3, scoring 6 weeks after application, g of A.S./ha 15, 30, 45, 60, 300, 30 + 300
# [11] = Table 5, scoring 3 weeks after application, g of A.S./ha by row: r6 15, r7 30, r8 45, r9 60, r10 900, r11 30 + 900
smiles,measurement,setting,value
"COc1cc(OC)nc(NC(=O)NS(=O)(=O)c2cc(NC=O)ccc2C(=O)N(C)C)n1 [(A1.1), N-[N-(4,6-dimethoxypyrimidin-2-yl)aminocarbonyl]-2-(dimethylaminocarbonyl)-5-(formylamino)benzenesulfonamide]",Herbicidal action ABUTH,[1],88%
same,Herbicidal action against Avena sterilis,Avena sterilis,83%
same,Herbicidal action against Chrysanthemum coronarium,Chrysanthemum coronarium,20%
same,Herbicidal action EPHHL,[2],70%
same,Herbicidal action IPOPU,[3]; 15 g of A.S./ha,43%
same,Herbicidal action IPOPU,[3]; 30 g of A.S./ha,67%
same,Herbicidal action IPOPU,[3]; 45 g of A.S./ha,70%
same,Herbicidal action IPOPU,[3]; 60 g of A.S./ha,83%
same,Herbicidal action PHBPU,[4],45%
same,Herbicidal action SOLNI,SOLNI; 15 g active substance per ha,65%
same,Herbicidal action SOLNI,SOLNI; 30 g active substance per ha,83%
same,Herbicidal action SOLNI,SOLNI; 60 g active substance per ha,90%
same,Herbicidal action SOLNI,SOLNI; 120 g active substance per ha,90%
same,Herbicidal action XANOR,[5]; 15 g active substance per ha,45%
same,Herbicidal action XANOR,[5]; 30 g active substance per ha,55%
same,Herbicidal action XANOR,[5]; 120 g active substance per ha,60%
"CS(=O)(=O)c1ccc(C(=O)C2C(=O)CCCC2=O)c([N+](=O)[O-])c1 [(B1.4.4), 2-(4-Mesyl-2-nitrobenzoyl)cyclohexane-1,3-dione]",Herbicidal action EPHHL,[2]; 100 g of active substance per ha,63%
same,Herbicidal action EPHHL,[2]; 150 g of active substance per ha,73%
"COP(=S)(OC)SCC(=O)N(c1ccc(Cl)cc1)C(C)(C)C [(B1.6.11), anilofos]",Herbicidal action Brachiaria plantophylla,Brachiaria plantophylla,35%
same,Damage on rice,rice,8%
"CCC/C(=N\OCC)C1=C(O)CC(CC(C)SCC)CC1=O (stereo not shown) [(B1.6.33), sethoxydim]",Damage on corn (SR),[6],3% and 2% and 0%
"N#Cc1cc(Br)c(O)c(Br)c1 [(B2.2.1), bromoxynil]",Herbicidal action CHEAL,[7],75%
same,Herbicidal action IPOPU,[3],53%
same,Herbicidal action SIDSP,SIDSP = Sida spinosa; [10],70%
same,Herbicidal action POLC0,[8],45%
same,Damage on corn,corn; [10],0%
same,Damage on corn,"corn; Table 4, scoring 40 days after application, g of A.S./ha: 30, 45, 60, 300, 45 + 300",0%
"CCCCCCCCSC(=O)Oc1cc(Cl)nnc1-c1ccccc1 [(B2.3.3), pyridate]",Herbicidal action against SIDSP,SIDSP = Sida spinosa; [11],10%
same,Damage on corn,corn; [11],0%
"COc1nc(C)nc(NC(=O)NS(=O)(=O)c2cc(I)ccc2C(=O)O)n1 [(B2.4.4), iodosulfuron]",Herbicidal action against AGRRE,AGRRE = Agropyron repens; 2.5 g of A.S./ha,0%
same,Herbicidal action against AGRRE,AGRRE = Agropyron repens; 5 g of A.S./ha,10%
"CC(C)N.O=C(O)CNCP(=O)(O)O [(B3.2.1), glyphosate-isopropylammonium]",Herbicidal action ECHCG,[9]; 250 g active substance per ha,73%
same,Herbicidal action ECHCG,[9]; 500 g active substance per ha,83%
same,Herbicidal action ECHCG,[9]; 1000 g active substance per ha,98%
